From patent US12162820B2 (TAIWANJ PHARMACEUTICALS CO., LTD., priority 2019, dated 2024) come the findings set out here.

Common to all, as to format: biochemical
One assay addresses T1, ATX (autotaxin) (Homo sapiens, UniProt Q13822).
T1 construct: purchased Cayman 10803
In words: Autotaxin Inhibition Screening Assay (choline release from LPC, LPC-CR). The following applies: for inhibition at 4 µM: 4 μM compound; for inhibition at 20 µM: 20 μM compound; for inhibition at 50 µM: 50 μM compound. On the procedure:
ATX (autotaxin) activity was measured by choline release from LPC in presence or absence of test compounds (Compounds 1˜83; at concentrations of 4 μM, 20 μM and 50 μM). Twenty (20) ng ATX (10803, Cayman, MI, USA) was incubated with 100 μM 14:0 LPC (855575P, Avanti, AL, USA) in a final volume of 100 μL buffer containing 50 mM Tris pH 8.0, 0.01% Triton X-100, 50 mM CaCl2, 1 unit/ml choline oxidase, 2 unit/ml horseradish peroxidase (HRP), 2 mM homovanilic acid (HVA). The relative amount of released choline was measured by HVA fluorescence in a 96-well plate. Fluorescent intensity was determined at λex/λem=320/450 nm every 60 sec for 90 min with a SpectraMax i3 (Molecular Devices, CA, USA). Data analysis was performed using GraphPad Prism (GraphPad, La Jolla CA, USA). Inhibition %=[1−(SlopeTA−SlopeBlank)/(SlopeVehicle−SlopeBlank)]×100% HDAC Inhibition Screening Assay

The target of a further assay is T2, HDAC1 (Homo sapiens, UniProt Q13547).
T2 construct: purchased Enzo Life Sciences
T2 sequence (Q13547 whole entry): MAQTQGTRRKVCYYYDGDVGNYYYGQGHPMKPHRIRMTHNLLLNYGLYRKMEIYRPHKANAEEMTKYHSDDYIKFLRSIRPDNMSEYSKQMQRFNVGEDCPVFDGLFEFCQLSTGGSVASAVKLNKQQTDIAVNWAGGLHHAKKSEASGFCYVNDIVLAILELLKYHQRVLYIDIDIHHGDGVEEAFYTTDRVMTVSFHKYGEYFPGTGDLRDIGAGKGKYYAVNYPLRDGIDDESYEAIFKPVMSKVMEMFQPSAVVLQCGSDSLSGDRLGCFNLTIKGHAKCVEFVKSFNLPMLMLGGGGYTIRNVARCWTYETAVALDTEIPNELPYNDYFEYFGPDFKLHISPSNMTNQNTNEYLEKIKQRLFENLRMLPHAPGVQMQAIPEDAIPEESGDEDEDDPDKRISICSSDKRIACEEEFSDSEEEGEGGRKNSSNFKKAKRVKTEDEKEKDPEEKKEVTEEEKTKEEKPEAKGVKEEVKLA
The assay is described as follows: HDAC Inhibition Screening Assay (FLUOR DE LYS Fluorimetric Drug Discovery Kit), HDAC1. Conditions: for inhibition at 2 µM: 2 μM compound; for inhibition at 10 µM: 10 μM compound; for inhibition at 50 µM: 50 μM compound. On the procedure:
(§1) The HDAC1/HDAC2/HDAC3 in vitro activities are detected by Enzo Life Sciences' HDAC1/HDAC2/HDAC3 Fluorimetric Drug Discovery Kit. The assay is based on the FLUOR DE LYS® Substrate and FLUOR DE LYS® Developer combination. The assay procedure has two steps. First, the FLUOR DE LYS® Substrate, which comprises an acetylated lysine side chain, is incubated with HDAC1/HDAC2/HDAC3, respectively. Deacetylation of the substrate sensitizes the substrate so that, in the second step, treatment with the FLUOR DE LYS® Developer produces a fluorophore. The signals of the test compounds (Compounds 1˜83; at concentrations of 2 μM, 10 μM and 50 μM) in 96-well plates are detected at 360 nm or 485 nm excitation and 460 nm or 530 nm emission with a Molecular Devices SpectraMax i3 Imaging Cytometer. The HDAC1/HDAC2/HDAC3 activities are expressed in percentage of basal control minus baseline control.

The target in another assay is T3, HDAC3 (Homo sapiens, UniProt O15379).
T3 construct: purchased Enzo Life Sciences
T3 sequence (O15379 whole entry): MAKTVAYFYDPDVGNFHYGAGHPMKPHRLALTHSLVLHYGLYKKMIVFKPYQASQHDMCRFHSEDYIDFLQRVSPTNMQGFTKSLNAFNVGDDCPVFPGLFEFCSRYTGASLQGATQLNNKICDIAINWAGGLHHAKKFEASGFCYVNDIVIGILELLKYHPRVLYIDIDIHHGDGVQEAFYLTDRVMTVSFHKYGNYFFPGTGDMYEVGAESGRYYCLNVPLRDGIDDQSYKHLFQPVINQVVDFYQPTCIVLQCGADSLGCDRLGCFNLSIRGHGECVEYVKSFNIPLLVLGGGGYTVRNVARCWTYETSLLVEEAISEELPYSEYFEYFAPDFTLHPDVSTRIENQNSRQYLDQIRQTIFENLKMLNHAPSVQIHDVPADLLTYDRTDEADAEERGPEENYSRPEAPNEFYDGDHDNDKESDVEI
T3 sequence (O75376 395-489 partner limits assumed): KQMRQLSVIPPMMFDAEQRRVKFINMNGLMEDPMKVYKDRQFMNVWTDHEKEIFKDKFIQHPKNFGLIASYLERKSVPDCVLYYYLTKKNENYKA
The assay is described as follows: HDAC Inhibition Screening Assay (FLUOR DE LYS Fluorimetric Drug Discovery Kit), HDAC3. Conditions: for inhibition at 2 µM: 2 μM compound; for inhibition at 10 µM: 10 μM compound; for inhibition at 50 µM: 50 μM compound. As to the method:
as §1

Another assay has as its target T4, HDAC2 (Homo sapiens, UniProt Q92769).
T4 construct: purchased Enzo Life Sciences
In words: HDAC Inhibition Screening Assay (FLUOR DE LYS Fluorimetric Drug Discovery Kit), HDAC2. Conditions: for inhibition at 2 µM: 2 μM compound; for inhibition at 10 µM: 10 μM compound; for inhibition at 50 µM: 50 μM compound. As to the method:
as §1

T4 sequence (Q92769 whole entry): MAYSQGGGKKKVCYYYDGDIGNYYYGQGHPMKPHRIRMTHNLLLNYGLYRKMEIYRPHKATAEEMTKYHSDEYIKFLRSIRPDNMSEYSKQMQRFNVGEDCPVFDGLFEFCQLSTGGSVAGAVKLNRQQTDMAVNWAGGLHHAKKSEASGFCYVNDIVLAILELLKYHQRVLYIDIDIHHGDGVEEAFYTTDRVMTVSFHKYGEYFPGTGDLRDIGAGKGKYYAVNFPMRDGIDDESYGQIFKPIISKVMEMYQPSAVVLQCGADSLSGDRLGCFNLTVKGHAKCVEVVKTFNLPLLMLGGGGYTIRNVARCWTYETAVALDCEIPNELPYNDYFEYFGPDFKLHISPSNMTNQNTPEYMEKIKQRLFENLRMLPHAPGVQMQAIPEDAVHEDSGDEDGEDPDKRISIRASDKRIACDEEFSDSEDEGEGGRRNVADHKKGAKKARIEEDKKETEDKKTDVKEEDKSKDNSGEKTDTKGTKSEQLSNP

As to `Nc1cc(F)ccc1NC(=O)/C=C/c1ccc2c(c1)CCCC2NC(=O)c1cc(C(F)(F)F)cc(C(F)(F)F)c1` (stereo not drawn) [Compound 23], on ATX (autotaxin), the inhibition (usually the drop in the measured response relative to a control, in per cent) at 4 µM was < 50%; the inhibition at 20 µM is < 50%; the inhibition at 50 µM was < 50%. Further, on HDAC1, the inhibition at 2 µM is < 50%, the inhibition at 10 µM is < 50% and the inhibition at 50 µM is < 50%. Besides, on HDAC3, the inhibition at 2 µM is < 50%, the inhibition at 10 µM is < 50% and the inhibition at 50 µM was < 50%. Further, on HDAC2, the inhibition at 2 µM was < 50%, the inhibition at 10 µM was < 50% and the inhibition at 50 µM was < 50%.
With `COc1ccc(N2C(=O)CN(C3CCc4cc(/C=C/C(=O)NO)ccc43)C2=O)cc1` (stereo not drawn) [Compound 38, (E)-N-hydroxy-3-(1-(3-(4-methoxyphenyl)-2,4-dioxoimidazolidin-1-yl)-2,3-dihydro-1H-inden-5-yl)acrylamide], at ATX (autotaxin), the inhibition at 4 µM was < 50%, the inhibition at 20 µM was < 50% and the inhibition at 50 µM was < 50%. On HDAC1, the inhibition at 2 µM was > 80%, the inhibition at 10 µM is > 80% and the inhibition at 50 µM was > 80%. Also, on HDAC3, the inhibition at 2 µM is > 80%, the inhibition at 10 µM was > 80% and the inhibition at 50 µM was > 80%. Moreover, at HDAC2, the inhibition at 2 µM is > 80%, the inhibition at 10 µM is > 80% and the inhibition at 50 µM is > 80%.
For the compound `O=C(/C=C/c1ccc(COc2ccc3c(c2)CC/C(=C\c2cc(C(F)(F)F)cc(C(F)(F)F)c2)C3=O)cc1)NO` [Compound 72, (E)-3-(4-(((6-((E)-3,5-bis(trifluoromethyl)benzylidene)-5-oxo-5,6,7,8-tetrahydronaphthalen-2-yl)oxy)methyl)phenyl)-N-hydroxyacrylamide], at ATX (autotaxin), the inhibition at 4 µM is 50 to 80%, the inhibition at 20 µM lay within 50 to 80% and the inhibition at 50 µM lay in the range of 50 to 80%. Further, on HDAC1, the inhibition at 2 µM is < 50%, the inhibition at 10 µM is < 50% and the inhibition at 50 µM was in the range of 50 to 80%. At HDAC3, the inhibition at 2 µM is < 50%, the inhibition at 10 µM is < 50% and the inhibition at 50 µM lay within 50 to 80%. Besides, on HDAC2, the inhibition at 2 µM was < 50%, the inhibition at 10 µM is < 50% and the inhibition at 50 µM was 50 to 80%.
Turning to `O=C(CCCCCCC(=O)Nc1ccc2c(c1)CC/C(=C\c1cc(C(F)(F)F)cc(C(F)(F)F)c1)C2=O)NO` [Compound 4], at ATX (autotaxin), the inhibition at 4 µM was > 80%, the inhibition at 20 µM is > 80% and the inhibition at 50 µM was > 80%. Besides, at HDAC1, the inhibition at 2 µM was 50 to 80%, the inhibition at 10 µM is > 80% and the inhibition at 50 µM was > 80%. Moreover, on HDAC3, the inhibition at 2 µM is < 50%, the inhibition at 10 µM fell in the range of 50 to 80% and the inhibition at 50 µM is > 80%. In addition, at HDAC2, the inhibition at 2 µM is 50 to 80%, the inhibition at 10 µM is > 80% and the inhibition at 50 µM is > 80%.
As for `Nc1cc(F)ccc1NC(=O)/C=C/c1ccc2c(c1)CC/C(=C\c1cc(C(F)(F)F)cc(C(F)(F)F)c1)C2=O` [Compound 6, (E)-N-(2-amino-4-fluorophenyl)-3-(6-((E)-3,5-bis(trifluoromethyl)benzylidene)-5-oxo-5,6,7,8-tetrahydronaphthalen-2-yl)acrylamide], at ATX (autotaxin), the inhibition at 4 µM lay within 50 to 80%, the inhibition at 20 µM was in the range of 50 to 80% and the inhibition at 50 µM is 50 to 80%. In addition, on HDAC1, the inhibition at 2 µM is < 50%, the inhibition at 10 µM is < 50% and the inhibition at 50 µM is < 50%. In addition, on HDAC3, the inhibition at 2 µM is < 50%, the inhibition at 10 µM is < 50% and the inhibition at 50 µM is < 50%. Besides, on HDAC2, the inhibition at 2 µM was < 50%, the inhibition at 10 µM was < 50% and the inhibition at 50 µM was < 50%.
With `O=C(CCCCCCC(=O)NC1CCCc2cc(Br)ccc21)NO` (stereo not drawn) [Compound 46, N1-(6-bromo-1,2,3,4-tetrahydronaphthalen-1-yl)-N8-hydroxyoctanediamide], on ATX (autotaxin), the inhibition at 4 µM is < 50%, the inhibition at 20 µM is < 50% and the inhibition at 50 µM is < 50%. On HDAC1, the inhibition at 2 µM is < 50%, the inhibition at 10 µM lay within 50 to 80% and the inhibition at 50 µM lay within 50 to 80%. Moreover, at HDAC3, the inhibition at 2 µM was < 50%, the inhibition at 10 µM is < 50% and the inhibition at 50 µM was 50 to 80%. On HDAC2, the inhibition at 2 µM was < 50%, the inhibition at 10 µM lay within 50 to 80% and the inhibition at 50 µM is > 80%.
Consider `O=C(/C=C/c1ccc2c(c1)CCC2N1CC(=O)N(c2cc(Cl)cc(Cl)c2)C1=O)NO` (stereo not drawn) [Compound 37, (E)-3-(1-(3-(3,5-dichlorophenyl)-2,4-dioxoimidazolidin-1-yl)-2,3-dihydro-1H-inden-5-yl)-N-hydroxyacrylamide], for which, on ATX (autotaxin), the inhibition at 4 µM was < 50%, the inhibition at 20 µM is < 50% and the inhibition at 50 µM is < 50%. At HDAC1, the inhibition at 2 µM was > 80%, the inhibition at 10 µM is > 80% and the inhibition at 50 µM was > 80%. In addition, at HDAC3, the inhibition at 2 µM is > 80%, the inhibition at 10 µM was > 80% and the inhibition at 50 µM was > 80%. In addition, on HDAC2, the inhibition at 2 µM is > 80%, the inhibition at 10 µM was > 80% and the inhibition at 50 µM is > 80%.
Take `O=C(CCCCCN(CC(=O)NC1CCc2ccccc21)CC(=O)NC1CCc2ccccc21)NO` (stereo not drawn) [Compound 45, 2,2′-((6-(hydroxyamino)-6-oxohexyl)azanediyl)bis(N-(2,3-dihydro-1H-inden-1-yl)acetamide)]: on ATX (autotaxin), the inhibition at 4 µM was < 50%, the inhibition at 20 µM is < 50% and the inhibition at 50 µM was < 50%. Besides, on HDAC1, the inhibition at 2 µM is > 80%, the inhibition at 10 µM is > 80% and the inhibition at 50 µM was > 80%. For the same compound, at HDAC3, the inhibition at 2 µM is > 80%, the inhibition at 10 µM was > 80% and the inhibition at 50 µM was > 80%. In addition, at HDAC2, the inhibition at 2 µM is > 80%, the inhibition at 10 µM was > 80% and the inhibition at 50 µM is > 80%.
`Nc1cc(F)ccc1NC(=O)CCCCCC(=O)Nc1ccc2c(c1)CC/C(=C\c1cc(C(F)(F)F)cc(C(F)(F)F)c1)C2=O` [Compound 11, (E)-N1-(2-amino-4-fluorophenyl)-N7-(6-(3,5-bis(trifluoromethyl)benzylidene)-5-oxo-5,6,7,8-tetrahydronaphthalen-2-yl)heptanediamide]: at ATX (autotaxin), the inhibition at 4 µM was > 80%, the inhibition at 20 µM was > 80% and the inhibition at 50 µM was > 80%. At HDAC1, the inhibition at 2 µM was < 50%, the inhibition at 10 µM was < 50% and the inhibition at 50 µM is < 50%. Also, on HDAC3, the inhibition at 2 µM is < 50%, the inhibition at 10 µM was < 50% and the inhibition at 50 µM was < 50%. Besides, at HDAC2, the inhibition at 2 µM was < 50%, the inhibition at 10 µM was < 50% and the inhibition at 50 µM was < 50%.
In the case of `O=C(CCCCCCC(=O)NC1CCc2cc(Br)ccc21)NO` (stereo not drawn) [Compound 40, N1-(5-bromo-2,3-dihydro-1H-inden-1-yl)-N8-hydroxyoctanediamide], at ATX (autotaxin), the inhibition at 4 µM was < 50%, the inhibition at 20 µM is < 50% and the inhibition at 50 µM was < 50%. Further, at HDAC1, the inhibition at 2 µM was in the range of 50 to 80%, the inhibition at 10 µM was > 80% and the inhibition at 50 µM is > 80%. For the same compound, on HDAC3, the inhibition at 2 µM is > 80%, the inhibition at 10 µM is > 80% and the inhibition at 50 µM was > 80%. Further, on HDAC2, the inhibition at 2 µM was > 80%, the inhibition at 10 µM was > 80% and the inhibition at 50 µM is > 80%.
With `Cc1[nH]c2ccccc2c1CCNC1CCCc2cc(/C=C/C(=O)Nc3ccc(F)cc3N)ccc21` (stereo not drawn) [Compound 62, (E)-N-(2-amino-4-fluorophenyl)-3-(5-((2-(2-methyl-1H-indol-3-yl)ethyl)amino)-5,6,7,8-tetrahydronaphthalen-2-yl)acrylamide], on ATX (autotaxin), the inhibition at 4 µM was < 50%, the inhibition at 20 µM was < 50% and the inhibition at 50 µM was < 50%. Besides, on HDAC1, the inhibition at 2 µM lay in the range of 50 to 80%, the inhibition at 10 µM was > 80% and the inhibition at 50 µM is > 80%. Also, on HDAC3, the inhibition at 2 µM fell in the range of 50 to 80%, the inhibition at 10 µM was > 80% and the inhibition at 50 µM is > 80%. In addition, at HDAC2, the inhibition at 2 µM was > 80%, the inhibition at 10 µM is > 80% and the inhibition at 50 µM is > 80%.
